Data on one compound can be found in patent US8993593B2, “N-(4-(6-fluoro-3,4-dihydroisoquinolin-2(1H)-yl)-2,6-dimethylphenyl)-3,3-dimethylbutanamide as potassium channel modulators” (Valeant Pharmaceuticals International, priority 2006, dated 2015).

Experiment [1] deals with mouse maximal electroshock seizure (MES) model. Briefly: Maximal electroshock seizure (MES) test, mouse. The class given is in vivo. As to conditions: Mus musculus, po; murine MES model, dosed orally 2 hours prior to testing; read-out: ED50, inhibition of seizures. An excerpt: (§1) The MES testing protocol is based on procedures established at the National Institute of Neurological Disorders and Stroke in conjunction with the Anticonvulsant Screening Program (ASP) at the University of Utah (White, H. S., Woodhead, J. H., Wilcox, K. S., Stables, J. P., Kupferberg, H. J and Wolf, H. H. 2002. “General Principles: Discovery and Preclinical Development of Antiepileptic Drugs,” in Antiepileptic Drugs, 5th Edition, R. H. Levy, ed.; R. H. Mattson, B. S. Meldrum, and E. Perucca. Philadelphia, Lippincott Williams & Wilkins.), The goal of the test rapid identification and characterization of the in vivo anticonvulsant activity of any compounds that have been shown active in PC-12 cellular based Rb^+ efflux assay.
(§2) Adult male CF-I albino mice (18-25 g, Charles River Laboratories) are exclusively used for in-house MES screen of compounds. Male Sprague-Dawley albino rats (100-125 g, Charles River Laboratories) are also used to test anticonvulsant compounds. Variability of test outcomes is reduced by using animals of the same sex, age, and weight. Animals are permitted to rest and recover from transit for at least 48 hr prior to experimentation. Animals are used for AED testing only once. In some instances, the animals may be anesthetized prior to blood collection and/or whole brain extraction for pharmacokinetic assay. All animals are maintained and handled as outlined in standard animal care guidelines.
(§3) In the experiments, testing compounds are prepared as suspensions in 0.5% methyl cellulose (Sigma, Cat #M0512, Viscosity 4000 cP at 20° C.) in water, regardless of solubility. Dry powder compounds are initially ground with a glass rod in a test tube in several drops of methyl cellulose to create a paste and to break down any large chunks. After several minutes of grinding, the volume of the suspension is increased to the final concentration desired. The suspension is then sonicated using a Branson sonicator model 3510 in a water bath at room temperature for 15 minutes. Compound suspensions are further vortexed prior to animal dosing. In some of the cases, DMSO is used to initially solubilize compounds in small volumes and then this solution is added to the 0.5% methyl cellulose solution, in order to create more even and less aggregated compound suspensions. The final concentration of DMSO is 3.75%, an amount with no apparent toxicity or neuroprotective effects in our usual rotarod and MES tests. Methyl cellulose/DMSO compound suspensions are identically prepared for intraperitoneally (i.p.) to mice or orally (p.o.) to rat dosing.
Initially the animals are weighed with an electronic scale and then marked. Data recording sheets are generated for each compound assessment. Mice or rats are dosed with the compound suspension at 0.01 mL/g of body weight. The typical injection volume range is between 180-250 μl for mice. […] Rats are p.o. dosed using a flexible feeding tube, typically starting at a compound dose of 5 mg/kg.
A Rodent Electroconvulsive Stimulator (Model 200, Hamit-Darvin-Freesh, Snow Canyon Clinic, Ivins, Utah) is used for MES testing. A 60-Hz alternating current (50 mA for mice; 150 mA for rats) is delivered for 0.2 seconds through corneal electrodes to the mice. A drop of 0.5% tetracaine (Sigma, Cat. #T-7508) solution is placed on the eye prior to current delivery. The electrodes are subsequently placed gently onto the eyes of the animal and the electrical shock is initiated by triggering through a foot-pedal activator. The animals are restrained by hand and gently released as the shock is delivered and the seizure commences. Animals are monitored for hind limb tonic extension as the end point for this test. Current delivery is recorded as a measure of overall seizure-induction potential. Electrical current delivery can vary from approximately 30-55 mA (mice) or 90-160 mA (rats) depending on impedance in the animal and quality of the current delivery (ie. correct placement of the electrodes on the cornea). […]

The test system of experiment [2] is rat MES model of epilepsy. Briefly: Maximal electroshock seizure (MES) test, rat. The class given is in vivo. As to conditions: po; rat MES model, dosed orally 1 hour prior to testing; read-out: ED50, inhibition of seizures.
Excerpt: as §1, §2, §3
Initially the animals are weighed with an electronic scale and then marked. Data recording sheets are generated for each compound assessment. Mice or rats are dosed with the compound suspension at 0.01 mL/g of body weight. The typical injection volume range is between 180-250 μl for mice. Compounds are dosed by i.p. to mice using a 25 or 22 gauge needle, depending on the viscosity of the suspension. Rats are p.o. dosed using a flexible feeding tube, typically starting at a compound dose of 5 mg/kg.
A Rodent Electroconvulsive Stimulator (Model 200, Hamit-Darvin-Freesh, Snow Canyon Clinic, Ivins, Utah) is used for MES testing. A 60-Hz alternating current (50 mA for mice; 150 mA for rats) is delivered for 0.2 seconds through corneal electrodes to the mice. […] Animals are monitored for hind limb tonic extension as the end point for this test. Current delivery is recorded as a measure of overall seizure-induction potential. […]
In general terms: Protection in the maximal electroshock model is a classic sign of anticonvulsant action.

On to `Cc1cc(N2CCc3cc(F)ccc3C2)cc(C)c1NC(=O)CC(C)(C)C` [compound A, N-[4-(6-fluoro-3,4-dihydro-1H-isoquinolin-2-yl)-2,6-dimethylphenyl]-3,3-dimethyl butanamide], for which the values for the 50% effective dose (ED50) in experiment [1] and in experiment [2] were 2.2 mg/kg and 1.1 mg/kg, respectively.
